How the values were obtained:
Format in all cases: in vivo, Sprague-Dawley rats
plasma TNF-a = test: LPS-induced inflammation in rats: plasma TNF-a; conditions: oral gavage 25 or 50 microgram daily over 7 days, LPS 0.5 mg/kg IP on Day 7, sacrifice four hours later, compared to LPS treated animals
Protocol: (§1) Male Sprague-Dawley rats (175 g) are kept on a 12-h light:dark cycle with food (Harlan-Teklad Rodent Chow, Madison, Wis.) and water provided freely. Animals are administered daily doses of vitamin K2 (MK-7) or saline (control) via oral gavage over 7 days. Stock solutions of vitamin K2 are prepared containing 3.5 g/L HCO-60 and 1 g/L of […] in buffer A (0.15 M NaCl, 0.05 M Tris-HCl, pH 7.5). The K2 is dissolved by sonication during five pulses of 5 set with an amplitude of 6 pm. Solutions thus obtained are clear, homogeneous, and stable. Shortly before vitamin K administration the stock solutions are diluted five times with buffer A, leading to a final HCO-60 concentration of 0.7 g/L. Further dilutions (as required) are made with 0.7 g/L HCO-60 in buffer A. Each dilution step is followed by sonication as described above. In all cases vitamin K2 is administered to the rats in 0.5 mL samples, with either 25 or 50 microgram oral doses.
On the final day (Day 7), rodents are administered vitamin K2 and 2 hours later were given an IP dose of LPS (Escherichia coli serotype O111:B4, L2630, Sigma) intraperitoneally (0.5 mg/kg of body weight). Four hours later animals are sacrificed.

IKKα/β (Ser176/180) = test: LPS-treated rats: gastrocnemius muscle immunoblot, phosphorylated IKKα/β; conditions: oral 25 or 50 microgram daily over 7 days, LPS IP, compared to LPS treatment
Protocol: (§2) Male Sprague-Dawley rats (175 g) are kept on a 12-h light:dark cycle with food (Harlan-Teklad Rodent Chow, Madison, Wis.) and water provided freely. Animals are administered daily doses of vitamin K2 (MK-7) or saline (control) via oral gavage over 7 days. Stock solutions of vitamin K2 are prepared containing 3.5 g/L HCO-60 and 1 g/L of […] in buffer A (0.15 M NaCl, 0.05 M Tris-HCl, pH 7.5). The K2 is dissolved by sonication during five pulses of 5 set with an amplitude of 6 pm. Solutions thus obtained are clear, homogeneous, and stable. […]
(§3) Analysis of mTOR Signaling to eIFs—Gastrocnemius muscles are weighed and homogenized in 7 volumes of buffer containing 20 mM HEPES (pH 7.4), 100 mM potassium chloride, 0.2 mM EDTA, 2 mM EGTA, 50 mM sodium fluoride, 50 mM glycerophosphate, 0.1 mM phenylmethylsulfonyl fluoride, 1 mM benzamidine, 1 mM dithiothreitol (DTT), and 0.5 mM sodium vanadate. […] Samples are analyzed for the phosphorylation status of 4E-BP1 (Thr37) and ribosomal protein S6 (Ser 235/236), the anti-phosphospecific antibodies were obtained from Cell Signaling Technology, Beverly, Mass. Additionally, samples are analyzed for phosphorylated IKKα/β (Ser176/180; Cell Signaling Technology) and phosphorylated p65 (Ser536; Cell Signaling Technology).

NFκB p65 (Ser536) = test: LPS-treated rats: gastrocnemius muscle immunoblot, phosphorylated p65; conditions: oral 25 or 50 microgram daily over 7 days, LPS IP, compared to LPS treatment
Protocol: as §2, §3

4E-BP1 (Thr37) = test: LPS-treated rats: mTOR signaling to eIFs, 4E-BP1 phosphorylation in gastrocnemius muscle; conditions: oral 25 or 50 microgram daily over 7 days, LPS IP, compared to LPS treatment
Protocol: as §2, §3

[1] = test system: ribosomal protein S6 (Ser 235/236); test: LPS-treated rats: mTOR signaling to eIFs, ribosomal protein S6 phosphorylation in gastrocnemius muscle; conditions: oral 25 or 50 microgram daily over 7 days, LPS IP, compared to LPS treatment
Protocol: as §2, §3

[2] = test system: mixed muscle protein synthesis; test: LPS-treated rats: fractional rate of mixed muscle protein synthesis (Ks), radioactive phenylalanine incorporation; conditions: oral 25 or 50 microgram daily over 7 days, LPS IP, conditions of inflammatory sepsis, compared to LPS treatment
Protocol: as §1, with “doses. […]” for “doses.”
Measurement of Protein Synthesis—The fractional rate of synthesis (Ks) is estimated from the rate of incorporation of radioactive phenylalanine into total mixed muscle protein using the specific radioactivity of serum phenylalanine as representative of the precursor pool. […]

## CC(C)=CCC/C(C)=C/CC/C(C)=C/CC/C(C)=C/CC/C(C)=C/CC/C(C)=C/CC/C(C)=C/CC1=C(C)C(=O)c2ccccc2C1=O [K2, vitamin K2 (MK-7)]
Plasma TNF-a
  rise of plasma TNF-a: significant decrease in the rise
IKKα/β (Ser176/180)
  phosphorylation for IKKα/β: significant blunting of the drop in phosphorylation
NFκB p65 (Ser536)
  NFκB p65 induction: significant blunting
4E-BP1 (Thr37)
  4E-BP1(Thr-37) phosphorylation: abrogates the decrease
[1]
  ribosomal protein S6 phosphorylation: abrogates the decrease
[2]
  fractional rate of mixed muscle protein synthesis: greater preservation
